This is an account of results in PubChem BioAssay AID449750 (Broad Institute, 2010).

Structures are written as SMILES. Calls of active or inactive are those of the source. No rule for the calls is given here. Where only a bound is given, the exact number is not on record here.

As usually defined, the AC50 is the concentration at which the activity in the assay is half-maximal.

The nature of the assay: non-covalent RecA intein splicing inhibitors, dose response, biochemical, cell-free, fluorescence, secondary screen (AID 449750).
Regarding `COC(=O)c1ccccc1NC(=S)NC(=O)c1ccc(C)cc1`, the AC50 is > 38 µM (inactive).
`CCN(c1ccccc1)c1cc2ccccc2c(=O)[nH]1`: the AC50 is > 38 µM (inactive).
Take `C/C(CC(=O)Nc1cc(C)ccn1)=N\NC(=O)c1ccccc1C`: the AC50 is > 38 µM (inactive).
Take `COc1cc(NCCCCCCCN)c2ncccc2c1`: the AC50 is 13.6 µM.
In the case of `COC(=O)CSc1nc2sc3c(c2c(=O)n1C1CCCCC1)CCN(C)C3`, the AC50 was > 38 µM (inactive).
In the case of `COCCOC(=O)C1=C(C)N=C2SCCC(=O)N2C1c1ccc(OC(=O)c2ccco2)cc1` (configuration not stated), the AC50 is > 38 µM (inactive).
Regarding `CCOC(=O)c1c(CSC(=N)N)n(-c2ccccc2)c2cc(Br)c(OC(C)=O)cc12`, the AC50 was 23.6 µM.
Next, `O=C(O)CC1S/C(=N/N=C/c2ccc(-c3ccccc3[N+](=O)[O-])o2)NC1=O` (configuration not stated): 9.4 µM.
Consider `Cc1cc(-c2[nH]nc3c2C(c2ccsc2)C(C#N)=C(N)O3)c(C)s1` (configuration not stated), for which the AC50 was 13.6 µM.
With `O=C1c2ccccc2C(=O)c2c1oc(C(F)(F)F)c2C(=O)c1ccccc1`, the AC50 was > 38 µM (inactive).
With `Cc1cccc(NC(=S)N/N=C2/CCCCc3ccccc32)c1`, the AC50 was > 38 µM (inactive).
As for `Cc1c(C#N)c(NC(=O)CCl)n(Cc2cccs2)c1C`, the AC50 was 8.86 µM.
For `CS/C(=C\[N+](=O)[O-])Nc1ccc(OC(F)(F)F)cc1`, the AC50 was > 38 µM (inactive).
Next, `COc1cc(/C=C(\C#N)C(=O)Nc2ccc3c(c2)OCCO3)ccc1O`: > 38 µM (inactive).
As for `Cc1ccc(O)c(N=CC2=C(O)c3ccccc3C2=O)c1`, the half-maximal activity concentration (AC50) is 21.5 µM.
As to `C/C(CC(=O)Nc1cc(C)ccn1)=N\NC(=O)C(=O)NC(C)C`, the AC50 is > 38 µM (inactive).
The figure for `CN1CCN(C2=C(Cl)C(=O)C(c3cnc(N4CCCCC4)s3)=C(Cl)C2=O)CC1` is 3.1 µM; for `O=C(O)CN1C(=O)/C(=C\c2cccc(OCc3ccc(Cl)cc3Cl)c2)SC1=S` it is 6.45 µM.
For `COc1ccc(/C=C2\SC(=S)N(CCCC(=O)Nc3ccc(O)cc3)C2=O)cc1`, the AC50 is > 38 µM (inactive).
As to `Clc1ccc2nnnc(-c3ccccc3)c2c1`, the concentration at half-maximal activity (AC50) is 9.57 µM.
`O=C1NCN(c2ccccc2)C12CCN(CCCC(c1ccc(F)cc1)c1ccc(F)cc1)CC2`: the concentration at half-maximal activity (AC50) is 16.5 µM.
The figure for `O=C(NC1=C(Nc2ccc(F)cc2)C(=O)c2ccccc2C1=O)c1ccc(Cl)cc1` is 13.6 µM; for `CS(=O)(=O)c1nc(-c2ccco2)cc(C(F)(F)F)n1` it is > 38 µM (inactive).
Turning to `COc1ccc(C(C[N+](=O)[O-])c2c(C)[nH]n(-c3ccccc3)c2=O)cc1` (configuration not stated), the concentration at half-maximal activity (AC50) is 2.8 µM.
`CCCc1c(C)c2c(C)[nH]nc2oc1=O`: the AC50 is > 38 µM (inactive).
As to `Cc1nn(C(=O)c2cccnc2)c(C)c1Sc1ccc(Br)cc1`, the concentration at half-maximal activity (AC50) was 24.5 µM.
For the compound `CCCc1[nH]nc2c1C(c1ccsc1)C(C#N)=C(N)O2` (configuration not stated), the AC50 was > 38 µM (inactive).
`COc1cc(C(=O)NCC(=O)N/N=C/c2cccc(OC(=O)c3ccco3)c2)cc(OC)c1OC`: the AC50 was > 38 µM (inactive).
As to `COc1ccc(C2=NN(c3nc(C)cc(C)n3)C(=O)C2)cc1`, the AC50 was 5.75 µM.
Next, `COc1ccc(NC(=O)/C(C#N)=C/c2ncc([N+](=O)[O-])n2C)c(OC)c1`: > 38 µM (inactive); `COc1cc(C2C(C#N)=C(N)Oc3n[nH]c(C)c32)cc2c1OCO2` (configuration not stated): 8.43 µM.
Consider `[O-][N+]1=c2ccc(Nc3ccccc3)cc2=NC12CCCCC2`, for which the half-maximal activity concentration (AC50) is 16.7 µM.
Consider `O=C1C(Cl)=C(N2CCOCC2)C(=O)N1c1ccccc1F`, for which the AC50 is > 38 µM (inactive).
As for `Cc1ccc(Sc2ccc(NC(=O)CCl)cc2)cc1C`, the AC50 was 0.699 µM.
The figure for `COc1ccc(N2CCN(C(=O)c3ccc(Oc4ccc(C(F)(F)F)cn4)cc3)CC2)cc1` is > 38 µM (inactive); for `COc1ccc(N/C=C2\CCc3ccccc3C2=O)cc1` it is > 38 µM (inactive).
`CC1(C)CC(CCNC(=O)CCl)(c2ccccc2)CCO1` (configuration not stated): the concentration at half-maximal activity (AC50) is 21.3 µM.
Regarding `Cc1cc(C(=O)CN2C(=O)c3ccccc3C2=O)c(C)n1C1CC1`, the AC50 was > 38 µM (inactive).
Turning to `Cc1[nH][nH]c(=O)c1C(c1ccc(-c2ccc(Cl)c(Cl)c2)o1)c1c(C)[nH][nH]c1=O`, the AC50 was 3.11 µM.
Regarding `CC1=NN(c2ccc(Cl)cc2)C(=O)C1C(c1cccc(O)c1)c1c(C)[nH]n(-c2ccc(Cl)cc2)c1=O` (configuration not stated), the AC50 was 7.91 µM.
For the compound `Cc1cc(=O)n(-c2ccccc2Cl)[nH]1`, the half-maximal activity concentration (AC50) was 22.3 µM.
In the case of `CC1=NN(C)C(=O)C1Cc1c(F)cccc1Cl` (configuration not stated), the AC50 was > 38 µM (inactive).
`Cc1ccc(N2C(=O)C(Cl)=C(N3CCN(C)CC3)C2=O)c(C)c1`: the AC50 was > 38 µM (inactive).
In the case of `COc1ccc(CN(C(=O)CSc2nnc(-c3ccccc3C)o2)c2ccc(F)cc2)cc1`, the AC50 was 21.9 µM.
For `CC1=NN(c2ccccc2)C(=O)C1`, the AC50 is 3.24 µM.
For `CC[C@@H](CO)NC(=O)[C@@H]1C=C2c3cccc4c3c(cn4C)C[C@H]2N(C)C1`, the AC50 was > 38 µM (inactive).
Turning to `O=c1c(Cl)c(NCCCO)cnn1-c1nc2ccccc2[nH]1`, the AC50 is > 38 µM (inactive).
For `CN(N)C(=S)Nc1ccc(Cl)cc1`, the AC50 was > 38 µM (inactive).
`CCOC(=O)C1CCN(S(=O)(=O)c2c(Cl)ccc3nonc23)CC1`: the AC50 is 11.6 µM.
Consider `CC(C)(C)c1cnnn1-c1ccc(C(=O)CCl)cc1`, for which the AC50 is > 38 µM (inactive).
Take `Cc1sc(NC(=O)CCl)c(C(=O)c2ccccc2)c1C`: the AC50 is 5.28 µM.
For `CCCc1[nH]nc2c1C(c1ccoc1)C(C#N)=C(N)O2` (configuration not stated), the AC50 is > 38 µM (inactive).
Consider `O=C(CCl)Nc1c(C(=O)Nc2ccc3c(c2)OCCO3)oc2ccccc12`, for which the half-maximal activity concentration (AC50) was 4.49 µM.
With `CS(=O)(=O)c1nc(-c2ccccc2)cc(C(F)(F)F)n1`, the AC50 was > 38 µM (inactive).
For `Cc1cc(C)c(C(CC(=O)c2cccs2)C(C#N)C#N)c(C)c1` (configuration not stated), the AC50 was 38.8 µM.
In the case of `S=C1NCCC12C(=S)Nc1ccccc12` (configuration not stated), the AC50 was > 38 µM (inactive).
Regarding `CC1=NN(c2ccccc2)C(=O)C1=C(C)C`, the AC50 is 15.9 µM.
Consider `N#CCCN(C(=O)CCl)c1cccc(Cl)c1`, for which the half-maximal activity concentration (AC50) is 38.9 µM.
Regarding `Cc1[nH]c2ccccc2c1C(C#N)(C#N)C1C(=O)c2ccccc2C1=O`, the AC50 is 2.58 µM.
Regarding `CCCc1[nH]nc2c1C(c1cccc(OC)c1)C(C#N)=C(N)O2` (configuration not stated), the AC50 was > 38 µM (inactive).
Consider `Cc1ccc(-c2csc(NC(=O)CSC3=NCCS3)n2)cc1`, for which the AC50 is 19.1 µM.
The figure for `CCOC(=O)N/N=C\c1ccc(OC(=O)c2ccco2)cc1` is > 38 µM (inactive).
Turning to `Cc1cccc(CS(=O)(=O)c2ncc(Cl)c(C(=O)Nc3ccc(F)cc3)n2)c1`, the AC50 was > 38 µM (inactive).
Consider `O=C(CCCN1C(=O)/C(=C\c2ccccc2)SC1=S)Nc1ccc(O)cc1C(=O)O`, for which the concentration at half-maximal activity (AC50) is 32.7 µM.
For `O=c1[nH]c(N2CCOCC2)cc2ccccc12`, the AC50 was > 38 µM (inactive).
As for `O=C(NCCc1ccccc1)C(c1cccs1)N(C(=O)CCl)c1ccc(Cl)cc1` (configuration not stated), the concentration at half-maximal activity (AC50) is 1.03 µM.
Turning to `COC(=O)C1=NN(C(C)=O)C2(CC(=O)N(c3cc(C)cc(C)c3)C2=O)C1` (configuration not stated), the AC50 is > 38 µM (inactive).
